Measurements as given in patent US20210392889A1, “COMPOSITIONS COMPRISING PYRIDINE CARBOXYLATE HERBICIDES WITH PDS INHIBITOR HERBICIDES” (Corteva Agriscience LLC, priority 2018, published 2021).

How the values were obtained:
[1] = test system: Russian thistle (SASKR, Salsola kali); assay: Greenhouse postemergence herbicidal effect, visual injury after 20-22 d; format: in vivo; conditions: for visual injury: Table 1
Procedure, shortened: (§1)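 Postemergence track-sprayer application, 187 L/ha, at 2nd–3rd true leaf; rates in g ae/ha (pyridine carboxylate) and g ai/ha (PDS inhibitor); 1.25% v/v oil adjuvant; safener cloquintocet-mexyl in the EC. Sub-irrigated after treatment. Read-out: visual % injury vs solvent blank (0 none, 100 complete kill).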

[2] = test system: velvetleaf (ABUTH, Abutilon theophrasti); assay: as above; format: in vivo
Procedure, shortened: as §1

[3] = test system: giant foxtail (SETFA, Setaria faberi); assay: as above; format: in vivo; conditions: Table 4
Procedure, shortened: as §1

spring barley (HORVS) = assay: Greenhouse postemergence phytotoxicity on crop, visual injury after 20-22 d; format: in vivo, Hordeum vulgare; conditions: for visual injury: Table 1
Excerpt: Seeds of the desired test plant species were planted in a 90:10% v/v (volume/volume) mixture of PRO-MIX® BX (Premier Tech Horticulture, Quakertown, Pa., USA) and PROFILE® GREENS GRADE™ (Profile Products LLC, Buffalo Grove, Ill., USA) planting mixture, which typically has a pH of 5.2 to 6.2 and an organic matter content of at least 50 percent, in plastic pots with a surface area of 103.2 square centimeters (cm^2). In some aspects, to ensure good germination and healthy plants, a fungicide treatment and/or other chemical or physical treatment was applied. The plants were grown for 7-36 days (d) in a greenhouse with an approximate 14-hour (h) photoperiod which was maintained at about 23° C. during the day and 22° C. during the night. Nutrients and water were added on a regular basis and supplemental lighting was provided with overhead metal halide 1000-Watt lamps as necessary. The plants were employed for testing when they reached the second or third true leaf stage.
Emulsifiable concentrates of each of each pyridine carboxylate herbicide (Compound A or Compound B) were prepared at 100 grams acid equivalent per liter (g ae/L). The emulsifiable concentrates also included a safener, cloquintocet-mexyl, at 120 grams active ingredient per liter (g ai/L). An aliquot of each emulsifiable concentrate was placed in a 25 mL glass vial and diluted with an aqueous mixture of 1.25% (v/v) ACTIROB® B esterified rapeseed oil (Bayer Crop Science, Research Triangle Park, N.C., USA) or MSO® Concentrate with LECI-TECH® methylated soybean oil (Loveland Products, Loveland, Colo., USA) to obtain concentrated stock solutions at the highest application rate for each herbicide, based upon a 12 milliliter (mL) application volume at a rate of 187 liters per hectare (L/ha). The concentrated stock solutions were further diluted with an aqueous mixture of 1.25% v/v ACTIROB® B or MSO® Concentrate with LECI-TECH® to obtain stock solutions at reduced application rates for each herbicide. Spray solutions of the herbicide combinations (Compound A or Compound B plus PDS inhibitor herbicide) were prepared by adding weighed amounts or aliquots of the PDS inhibitor herbicide to the stock solutions of Compound A or Compound B to form 12-mL spray solutions in two- or three-way combinations.
The spray solutions were applied to the plant material with an overhead Mandel track sprayer equipped with 8002E nozzles calibrated to deliver 187 L/ha over an application area of 0.503 square meters (m^2) at a spray height of 18 inches ([…] centimeters (cm)) above the average plant canopy. Control plants were sprayed in the same manner with the solvent blank. All pyridine carboxylate herbicide (component a) application rates are given as “g ae/ha” and all PDS inhibitor herbicide (component b) application rates are given as “g ai/ha.”
The treated plants and control plants were placed in a greenhouse as described above and watered by sub-irrigation to prevent wash-off of the test compounds. After 20-22 d, the condition of the test plants as compared with that of the control plants was determined visually and scored on a scale of 0 to 100 percent where 0 corresponds to no injury and 100 corresponds to complete kill.

## N#CCOC(=O)c1nc(-c2ccc3cc[nH]c3c2F)c(F)c(N)c1Cl [Compound A, cyanomethyl 4-amino-3-chloro-5-fluoro-6-(7-fluoro-1H-indol-6-yl)pyridine-2-carboxylate]
[1]; 7.5 g/ha
  visual injury: 60%
[1]; 7.5 g/ha, Table 2
  visual injury Obs: 45%
[1]; 7.5 g/ha, Table 3
  visual injury Obs: 38%
[1]; 7.5 g/ha, Table 8
  visual injury Obs: 55%
[1]; 10 g/ha
  visual injury: 63%
[1]; 10 g/ha, Table 2
  visual injury Obs: 60%
[1]; 10 g/ha, Table 3
  visual injury Obs: 63%
[1]; 10 g/ha, Table 8
  visual injury Obs: 58%
[1]; 15 g/ha, Table 8
  visual injury Obs: 65%
[2]; 7.5 g/ha, Table 4
  visual injury Obs: 68%
[2]; 7.5 g/ha, Table 5
  visual injury Obs: 40%
[2]; 7.5 g/ha, Table 6
  visual injury Obs: 40%
[2]; 10 g/ha, Table 4
  visual injury Obs: 78%
[2]; 10 g/ha, Table 5
  visual injury Obs: 48%
[2]; 10 g/ha, Table 6
  visual injury Obs: 48%
[3]; 7.5 g/ha
  visual injury Obs: 70%
[3]; 10 g/ha
  visual injury Obs: 70%
Spring barley (HORVS); 7.5 g/ha
  visual injury: 0%
Spring barley (HORVS); 7.5 g/ha, Table 2
  visual injury Obs: 8%
Spring barley (HORVS); 7.5 g/ha, Table 3
  visual injury Obs: 0%
Spring barley (HORVS); 7.5 g/ha, Table 7
  visual injury Obs: 0%
Spring barley (HORVS); 7.5 g/ha, Table 8
  visual injury Obs: 8%
Spring barley (HORVS); 10 g/ha
  visual injury: 0%
Spring barley (HORVS); 10 g/ha, Table 2
  visual injury Obs: 0%
Spring barley (HORVS); 10 g/ha, Table 3
  visual injury Obs: 0%
Spring barley (HORVS); 10 g/ha, Table 7
  visual injury Obs: 0%
Spring barley (HORVS); 10 g/ha, Table 8
  visual injury Obs: 5%
Spring barley (HORVS); 15 g/ha, Table 8
  visual injury Obs: 3%
